Data published in the supplement of paper PMC11061612.

Experiments:
Assay in all cases: Bliss excess, mean over the matrix (fraction); higher = more synergy
[1] = tested on: RERF-LC-KJ (Lung Adenocarcinoma)
Outline: (§1)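 Bliss excess equals the observed combination effect minus the expected value EA + EB − EA·EB, where EA and EB are the effects of each agent alone. Combination Emax is the second-highest inhibition within the matrix. Inhibition was scaled from CellTiter-Glo 2.0 luminescence, with 0 set by vehicle wells and 1 by blank wells, after 72 hours of two-drug dosing of cells plated in 1536-well plates.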

[2] = tested on: NCI-H810 (Non-Small Cell Lung Carcinoma)
Outline: as §1

[3] = tested on: Becker (Low Grade Glioma)
Outline: as §1

[4] = tested on: LAMA-84 (Chronic Myelogenous Leukemia)
Outline: as §1

[5] = tested on: CML-T1 (Chronic Myelogenous Leukemia)
Outline: as §1

[6] = tested on: AN3-CA (Endometrial Carcinoma)
Outline: as §1

[7] = tested on: NCI-H1563 (Lung Adenocarcinoma)
Outline: as §1

[8] = tested on: SW684 (Other Solid Carcinomas)
Outline: as §1

[9] = tested on: ES-2 (Ovarian Carcinoma)
Outline: as §1

[10] = tested on: SJRH30 (Rhabdomyosarcoma)
Outline: as §1

[11] = tested on: Calu-6 (Non-Small Cell Lung Carcinoma)
Outline: as §1

[12] = tested on: BALL-1 (B-Lymphoblastic Leukemia)
Outline: as §1

[13] = tested on: LOUCY (T-Lymphoblastic Leukemia)
Outline: as §1

[14] = tested on: NCI-H1755 (Lung Adenocarcinoma)
Outline: as §1

[15] = tested on: KYSE-70 (Esophageal Squamous Cell Carcinoma)
Outline: as §1

[16] = tested on: NCI-H196 (Small Cell Lung Carcinoma)
Outline: as §1

[17] = tested on: EB-3 (Burkitt's Lymphoma)
Outline: as §1

[18] = tested on: FLO-1 (Esophageal Adenocarcinoma)
Outline: as §1

[19] = tested on: NCI-H1623 (Lung Adenocarcinoma)
Outline: as §1

[20] = tested on: Caov-3 (Ovarian Carcinoma)
Outline: as §1

| SMILES | Bliss excess [1] | Bliss excess [2] | Bliss excess [3] | Bliss excess [4] | Bliss excess [5] | Bliss excess [6] | Bliss excess [7] | Bliss excess [8] | Bliss excess [9] | Bliss excess [10] | Bliss excess [11] | Bliss excess [12] | Bliss excess [13] | Bliss excess [14] | Bliss excess [15] | Bliss excess [16] | Bliss excess [17] | Bliss excess [18] | Bliss excess [19] | Bliss excess [20] |
| --- | --- | --- | --- | --- | --- | --- | --- | --- | --- | --- | --- | --- | --- | --- | --- | --- | --- | --- | --- | --- |
| NC1(C(=O)N[C@@H](CCO)c2ccc(Cl)cc2)CCN(c2ncnc3[nH]ccc23)CC1 [Capivasertib] + C[C@@H]1COCCN1C2=NC(=NC(=C2)C3(CC3)[S@](=N)(=O)C)C4=C5C=CNC5=NC=C4 [AZD6738] (first compound max 10 µM, 7x7, partner max 10 µM) | -0.0722 | -0.0575 | -0.0135 | 0.0117 | -0.0774 | -0.0526 | -0.0357 | -0.0465 | -0.0716 | -0.0324 | -0.0777 | -0.0066 | -0.0482 | -0.0244 | -0.0691 | -0.0265 | -0.0579 | -0.0933 | -0.0522 |  |
| NC1(C(=O)N[C@@H](CCO)c2ccc(Cl)cc2)CCN(c2ncnc3[nH]ccc23)CC1 [Capivasertib] + Cn1cnc2c(F)c(Nc3ccc(Br)cc3Cl)c(C(=O)NOCCO)cc21 [Selumetinib] (first compound max 10 µM, 7x7, partner max 10 µM) | 0.0517 | -0.014 | 0.0788 | 0.0548 | 0.0217 | -0.0016 | -0.119 | 0.0495 | 0.0171 | 0.0297 | 0.0038 | 0.0317 | 0.0806 | 0.0295 | -0.0073 | -0.0436 | -0.0424 | 0.0307 | 0.0623 |  |
| Cc1nc(Nc2ncc(C(=O)Nc3c(C)cccc3Cl)s2)cc(N2CCN(CCO)CC2)n1 [Dasatinib] + CC(=O)Nc1cccc(-n2c(=O)n(C3CC3)c(=O)c3c(Nc4ccc(I)cc4F)n(C)c(=O)c(C)c32)c1 [Trametinib] (first compound max 2 µM, 7x7, partner max 1 µM) | -0.0295 | -0.0565 | 0.0234 | 0.0037 | -0.0296 | -0.168 | -0.111 | 0.0004 | 0.0522 | -0.0973 | 0.179 | -0.0108 | 0.0286 | -0.0052 | -0.0729 | -0.0634 | -0.0156 | 0.122 | -0.0775 |  |
| COc1cc2ncnc(Nc3ccc(F)c(Cl)c3)c2cc1OCCCN1CCOCC1 [Gefitinib] + CC(C)n1c(=O)n(C)c2cnc3cc(F)c(-c4ccc(OCCCN5CCCCC5)nc4)cc3c21 [AZD1390] (first compound max 10 µM, 7x7, partner max 0.3 µM) | -0.0807 | -0.0863 | -0.0247 | -0.0328 | -0.0252 | -0.0592 | -0.0757 | -0.0557 | -0.0989 | -0.0407 | -0.0556 | -0.07 | 0.0024 | -0.0854 | -0.038 | -0.0685 | -0.0192 | -0.0696 | -0.0268 |  |
| CS(=O)(=O)CCNCc1ccc(-c2ccc3ncnc(Nc4ccc(OCc5cccc(F)c5)c(Cl)c4)c3c2)o1 [Lapatinib] + C[C@@H](Oc1cc(-c2cnn(C3CCNCC3)c2)cnc1N)c1c(Cl)ccc(F)c1Cl [Crizotinib] (first compound max 10 µM, 7x7, partner max 10 µM) | 0.074 | -0.0386 | -0.0387 | 0.001 | -0.106 | -0.0223 | 0.0087 | -0.0389 | -0.0565 | -0.0323 | 0.0122 | 0.0146 | -0.102 | -0.0468 | -0.0359 | -0.0564 | -0.0572 | -0.0535 | 0.0555 |  |
| CC(=O)c1c(C)c2cnc(Nc3ccc(N4CCNCC4)cn3)nc2n(C2CCCC2)c1=O [Palbociclib] + CC1(C)CCC(CN2CCN(c3ccc(C(=O)NS(=O)(=O)c4ccc(NCC5CCOCC5)c([N+](=O)[O-])c4)c(Oc4cnc5[nH]ccc5c4)c3)CC2)=C(c2ccc(Cl)cc2)C1 [Venetoclax] (first compound max 10 µM, 7x7, partner max 1 µM) | -0.0314 | -0.0585 | -0.0205 | 0.0201 | -0.0899 | -0.024 | -0.0079 | -0.0492 | -0.0219 | -0.0363 | 0.0322 | -0.0053 | 0.083 | 0.0337 | -0.0465 | -0.0608 | -0.0455 | -0.019 | 0.011 |  |
| CC(=O)c1c(C)c2cnc(Nc3ccc(N4CCNCC4)cn3)nc2n(C2CCCC2)c1=O [Palbociclib] + Cc1c2c(nn1C)CSCc1cc(n(C)n1)CSc1cc(c3ccccc3c1)OCCCc1c(C(=O)O)n(C)c3c-2c(Cl)ccc13 [AZD5991] (first compound max 10 µM, 7x7, partner max 1 µM) | -0.0723 | -0.0444 | 0.0059 | 0.0056 | -0.0233 | -0.0305 | -0.098 | -0.0906 | -0.0182 | -0.0488 | -0.0227 | -0.0683 | 0.0154 | -0.0188 | -0.0462 | -0.0784 | -0.0271 | 0.0084 | -0.0321 |  |
| CC(=O)c1c(C)c2cnc(Nc3ccc(N4CCNCC4)cn3)nc2n(C2CCCC2)c1=O [Palbociclib] + Cn1cnc2c(F)c(Nc3ccc(Br)cc3Cl)c(C(=O)NOCCO)cc21 [Selumetinib] (first compound max 10 µM, 7x7, partner max 10 µM) | -0.0208 | -0.0697 | 0.0393 | -0.0263 | -0.013 | -0.0278 | 0.0092 | -0.018 | -0.0041 | -0.0131 | -0.102 | -0.12 | -0.0138 | 0.0425 | -0.0096 | -0.0617 | -0.0727 | 0.0209 | 0.0398 |  |
| CCc1c2c(nc3ccc(O)cc13)-c1cc3c(c(=O)n1C2)COC(=O)[C@]3(O)CC [SN-38] + O=C(c1cc(Cc2n[nH]c(=O)c3ccccc23)ccc1F)N1CCN(C(=O)C2CC2)CC1 [Olaparib] (first compound max 0.3 µM, 7x7, partner max 10 µM) |  | 0.107 | 0.083 | 0.0833 | -0.0065 |  |  | -0.0048 |  | 0.0591 | 0.0211 | 0.0629 | 0.0204 | 0.0419 | 0.0423 |  | -0.0075 | 0.0371 |  | 0.0886 |
| C[C@@H](c1ccc2nccn2c1)n1nnc2ncc(-c3cnn(C)c3)nc21 [Savolitinib] + CC1(C)CCC(CN2CCN(c3ccc(C(=O)NS(=O)(=O)c4ccc(NCC5CCOCC5)c([N+](=O)[O-])c4)c(Oc4cnc5[nH]ccc5c4)c3)CC2)=C(c2ccc(Cl)cc2)C1 [Venetoclax] (first compound max 1 µM, 7x7, partner max 1 µM) | -0.077 | -0.0517 | -0.0182 | -0.0111 | -0.0156 | -0.0499 | -0.0691 | -0.0461 | -0.0324 | -0.0577 | -0.0539 | -0.0306 | -0.0803 | -0.05 | -0.0504 | -0.067 | -0.0614 | -0.0752 | -0.046 |  |
| C[C@@H](c1ccc2nccn2c1)n1nnc2ncc(-c3cnn(C)c3)nc21 [Savolitinib] + Cc1c2c(nn1C)CSCc1cc(n(C)n1)CSc1cc(c3ccccc3c1)OCCCc1c(C(=O)O)n(C)c3c-2c(Cl)ccc13 [AZD5991] (first compound max 1 µM, 7x7, partner max 1 µM) | 0.012 | -0.0517 | 0.0103 | 0.0136 | 0.0118 | -0.0365 | -0.0271 | -0.0608 | -0.0299 | -0.0432 | -0.0124 | -0.052 | 0.0369 | -0.0361 | -0.0339 | -0.0675 | -0.076 | -0.032 | -0.0195 |  |
| Cn1cnc2c(F)c(Nc3ccc(Br)cc3Cl)c(C(=O)NOCCO)cc21 [Selumetinib] + C=CCn1c(=O)c2cnc(Nc3ccc(N4CCN(C)CC4)cc3)nc2n1-c1cccc(C(C)(C)O)n1 [AZD1775] (first compound max 10 µM, partner max 1 µM) | -0.0044 | -0.0632 | 0.0145 | -0.0385 | -0.0607 | -0.0495 | -0.0393 | -0.106 | 0.0334 | -0.0372 | -0.0133 | 0.0018 | -0.196 | 0.0496 | -0.0339 | -0.0704 | -0.0729 | -0.0108 | -0.0223 |  |
| Cn1cnc2c(F)c(Nc3ccc(Br)cc3Cl)c(C(=O)NOCCO)cc21 [Selumetinib] + CC(C)n1c(=O)n(C)c2cnc3cc(F)c(-c4ccc(OCCCN5CCCCC5)nc4)cc3c21 [AZD1390] (first compound max 10 µM, 7x7, partner max 0.3 µM) | -0.0073 | -0.0525 | -0.007 | -0.0309 | -0.0441 | -0.0669 | -0.0229 | -0.0616 | -0.0215 | -0.031 | -0.0588 | -0.0156 | -0.0166 | 0.0153 | -0.0481 | -0.0561 | -0.0806 | -0.0276 | 0.0076 |  |
| Cn1cnc2c(F)c(Nc3ccc(Br)cc3Cl)c(C(=O)NOCCO)cc21 [Selumetinib] + CCN(CCO)CCCOc1ccc2c(Nc3cc(CC(=O)Nc4cccc(F)c4)[nH]n3)ncnc2c1 [AZD2811] (first compound max 10 µM, 7x7, partner max 1 µM) | -0.003 | -0.037 | -0.0119 | 0.0237 | 0.0685 | 0.0242 | 0.0102 | -0.036 | -0.0322 | -0.0008 | -0.0026 | 0.0638 | -0.0979 | 0.0386 | 0.0047 | -0.057 | -0.0415 | -0.0448 | 0.0134 |  |
| Cn1cnc2c(F)c(Nc3ccc(Br)cc3Cl)c(C(=O)NOCCO)cc21 [Selumetinib] + C[C@@H]1COCCN1C2=NC(=NC(=C2)C3(CC3)[S@](=N)(=O)C)C4=C5C=CNC5=NC=C4 [AZD6738] (first compound max 10 µM, 7x7, partner max 10 µM) | 0.0075 | -0.0707 | 0.0016 | 0.0012 | -0.0631 | 0.0359 | -0.0297 | -0.071 | 0.0006 | -0.0293 | -0.032 | -0.0066 | -0.0446 | 0.012 | -0.0408 | -0.0607 | -0.069 | -0.0137 | 0.0028 |  |
